Test results: US20030185864A1, “Preventives or remedies for atopic dermatitis” (priority 2000, published 2003)

Tests used:
[1] = test system: epidermal ceramide synthesis; test: Evaluation of the amount of epidermal ceramide synthesis in hairless mice; assay type: in vivo, hairless mouse (SKH1:hr/hr:BR); details: for Relative amount of total ceramide synthesis (%) / Relative amount of ceramide III synthesis (%): relative to untreated mice; for Relative amount of ceramide III synthesis (%): 200 μl to dorsal skin once a day for one month, ceramide III = ceramides 1 and 2
Experimental: Test Compositions 1 to 5 were obtained by preparing 30% by weight aqueous ethanol solutions containing 0, 1.0, 3.0, 5.0 and 10.0% by weight, respectively, of N-acetyl-trans-4-hydroxy-L-proline. The pH values of the aqueous solutions were adjusted to 4.5 with sodium hydroxide.
Each of Test Compositions 1 to 5 was applied at 200 μl to the entire dorsal area as the tested region of each hairless mouse (SKH1:hr/hr:BR, male, 7 week old, available from Charles River Japan, Inc.) once a day for one month. The mice were used as four animals per each group.
Before starting of the application and one month after starting of the application, epidermal lipids were extracted from the entire dorsal area as the tested region of each mouse, and the activity of N-acetyl-trans-4-hydroxy-L-proline to synthesize ceramide was evaluated by measuring the ceramide content.
The epidermal lipids were obtained by extraction with 95% ethanol and further extracting the extract with hexane:methanol (2:3), followed by drying. The resulting epidermal lipids were dissolved in chloroform and separated by using silica gel thin layer chromatography in a manner similar to the method of Imokawa et al. [Journal of Investigative Dermatology, 96, 523 (1991)], and then the ceramide content was measured using a flying-spot scanning densitometer (manufactured by Shimadzu Corporation, CS-9000).
The ceramide content was calculated in accordance with the following equation, as the relative value to the change in the amount of ceramide synthesis in untreated mice.
Relative amount of ceramide synthesis (%)=[(A1×B2)/(A2×B1)]×100
A1: Ceramide content after application in tested mice
A2: Ceramide content before application in tested mice
B1: Ceramide content after application in untreated mice
B2: Ceramide content before application in untreated mice
Since it is known that the ceramides exist in several isomer forms, the calculation was carried out on each of the amount of total ceramide synthesis and those of syntheses of various ceramide isomers. As the standards, ceramide III (consisting of ceramides 1 and 2) and ceramide IV (consisting of ceramides 4 and 5) both manufactured by Sigma wer used. Here, total ceramide means the total of ceramides 1, 2, 4 and 5, and ceramide III means the total of ceramides 1 and 2. The ceramides 1, 2, 4 and 5 correspond to the compounds 1, 2, 4 and 5, respectively, described in FIG. 2 of Journal of Lipid Research, 24, 559 (1983).

[2] = test system: auricular edema in atopic dermatitis-induced model mice (Type I Allergy Model); test: Auricular edema inhibition in atopic dermatitis-induced model mice (type I allergy model, tick extract); assay type: in vivo, NC/Nga mouse; details: for Relative auricular edema increase (%): 20 μl to both sides of auricle once a day from 7th day, measured on 28th day, mean ± SD, n=6
Experimental: Test Compositions 6 to 8 were obtained by preparing 30% by weight aqueous ethanol solutions containing 0, 1.0 and 3.0% by weight, respectively, of N-acetyl-trans-4-hydroxy-L-proline. The pH values of the aqueous solutions were adjusted to 4.5 with sodium hydroxide.
Atopic dermatitis using NC/Nga mice was carried out in a same manner similar to the method of Sasagawa et al. [16th Japanese Society of Disease Models (1999)]. Auricular edema was induced by intradermal injection of 20 μg of a tick (Dermatophagoides pteronyssinus) extract as the antigen into the auricle of NC/Nga mouse (male, 8 week old, available from Charles River Japan, Inc.), once a day at a predetermined time in the 1st day, 3rd day and every day from 7th days after starting of the test. Each of Test Compositions 6 to 8 was applied at 20 μl to both sides of the auricle as the tested region, 6 hours after administration of the tick extract, once a day from the 7th day after starting of the test. The mice were used as six animals per each group.
A thickness of the auricle was measured on the 28th day after starting of the test using a dial thickness gauge (G-1A, manufactured by PEACOCK), and the relative auricular edema increase (%) was calculated in accordance with the following equation.
(§1) Relative auricular edema increase (%)=[(A1×B2)/(A2×B1)]×100
(§2) A1: Thickness of auricle after passed days in tested mice
(§3) A2: Thickness of auricle at the time of starting of the test in tested mice
(§4) B1: Thickness of auricle after passed days in untreated mice
(§5) B2: Thickness of auricle at the time of starting of the test in untreated mice

[3] = test system: auricular edema in atopic dermatitis-induced model mice (Type I and Type IV Allergy Models); test: Auricular edema inhibition in atopic dermatitis-induced model mice (type I and type IV allergy models, DNCB); assay type: in vivo, NC/Nga mouse; details: for Relative auricular edema increase (%): 3% by weight, 20 μl to both sides of auricle once a day, mean ± SD, n=6
Experimental: Test Compositions 9 and 10 were obtained by preparing 30% by weight ethanol solutions containing 0 and 3.0% by weight, respectively, of N-acetyl-trans-4-hydroxy-L-proline. The pH values of the aqueous solutions were adjusted to 4.5 with sodium hydroxide.
Atopic dermatitis using NC/Nga mice was carried out in a manner similar to the method of Fujii et al. [Fundamentals and Clinics (Kiso-to-Rinsho), 31(8), 2693 (1997)]. Auricular edema was induced by applying 20 μl of 1.5% dinitrochlorobenzene (DNCB) to both sides of the auricle of NC/Nga mouse (male, 8 week old, available from Charles River Japan, Inc.), once a day at a predetermined time in the 1st, 3rd and 7th days after starting of the test. Each of Test Compositions 9 and 10 was applied at 20 μl to both sides of the auricle as the tested region, 6 hours after the application of DNCB and once a day every day from the 1st day after starting of the test. The mice were used as six animals per each group.
Just before the application of the test compositions to the auricle on the 11th, 12th, 14th and 17th days after starting of the test, a thickness of the auricle was measured using a dial thickness gauge (G-1A, manufactured by PEACOCK), and the relative auricular edema increase (%) was calculated in accordance with the following equation.
as §1, §2, §3, §4, §5

[4] = concentration of 1 to 3% by weight, long period of continuous use

Structure (SMILES): CC(=O)N1C[C@H](O)C[C@H]1C(=O)O [N-acetyl-trans-4-hydroxy-L-proline]
- Relative amount of total ceramide synthesis (%) ([1]; 1% by weight in 30% aqueous ethanol pH 4.5, 200 μl to dorsal skin once a day for one month): 218.6%
- Relative amount of ceramide III synthesis (%) ([1]; 1% by weight): 239.5%
- Relative amount of total ceramide synthesis (%) ([1]; 3% by weight in 30% aqueous ethanol pH 4.5, 200 μl to dorsal skin once a day for one month): 170.6%
- Relative amount of ceramide III synthesis (%) ([1]; 3% by weight): 321.1%
- Relative amount of ceramide III synthesis (%) ([1]; 5% by weight): 209.6%
- Relative amount of ceramide III synthesis (%) ([1]; 10% by weight): 185.9%
- total ceramide content in the epidermal stratum corneum [1, 4]: significant increase
- ceramide III in the epidermal stratum corneum ([1]; concentration of 1 to 10% by weight, long period of continuous use): significant increase
- Relative auricular edema increase (%) ([2]; 1% by weight): 120.9 ± 3.5%
- Relative auricular edema increase (%) ([2]; 3% by weight): 110.1 ± 4.4%
- inhibition of auricular edema caused by the type I allergy model [2, 4]: significantly inhibited
- Relative auricular edema increase (%) ([3]; 11th day after starting of test): 360.1 ± 64.2%
- Relative auricular edema increase (%) ([3]; 12th day after starting of test): 399.7 ± 55.9%
- Relative auricular edema increase (%) ([3]; 14th day after starting of test): 429.0 ± 72.3%
- Relative auricular edema increase (%) ([3]; 17th day after starting of test): 312.1 ± 50.6%
- inhibition of auricular edema caused by the type I and type IV allergy models ([3]; concentration of 3% by weight, long period of continuous use): significantly inhibited
